Source: US20150119349A1, “NEW ANTIFUNGAL COMPOSITIONS” (DSM IP ASSETS B.V., priority 2012, published 2015)

How the values were obtained:
Type in all cases: in vivo
Penicillium italicum [1] = experiment: Treatment of oranges inoculated with Penicillium italicum, natamycin/ferbam (Example 7); settings: 20° C., 600 ppm ferbam
Protocol: (§1) Ten fresh, organic oranges were used per treatment. Each orange was soaked in a 180 ppm hypochlorite solution for 10 minutes, then rinsed thoroughly with fresh tap water and dried. The peel of each disinfected orange was wounded once using a cork borer according to the method described by de Lapeyre de Bellaire and Dubois (1987). Subsequently, each wound was inoculated with 10 μl of a Penicillium italicum suspension containing 1×10^5 of spores/ml. After incubation for 3 hours at 20° C., each wound and the orange peel area of 1 cm around the wound was treated with in total 150 μl of a freshly prepared aqueous antifungal composition comprising either 500 ppm natamycin (DSM Food Specialties, Delft, The Netherlands), 500 ppm propineb or both. Each antifungal composition also comprised 3.2% (w/w) beeswax, 0.8% (w/w) glycerol, 0.7% (w/w) polyoxyethylene sorbitan monostearate (Tween 60), 0.2% (w/w) polyoxyethylene sorbitan monooleate (Tween 80), 0.05% (w/w) methylhydroxyethyl-cellulose (MHEC), 0.03% (w/w) anti-foaming agent, 0.02% (w/w) xanthan gum, 0.02% (w/w) citric acid, 0.01% (w/w) lactic acid and 0.01% potassium sorbate. A composition without natamycin or propineb was used as control.
(§2) The treated oranges were incubated in a closed box in the dark at 20° C. and assessed on mould growth during a 17-day incubation period. The antifungal activity (in %) of the individual and combined active ingredients was determined by calculating the reduction in mould growth observed on the oranges treated with the antifungal composition in comparison to the mould growth on the oranges treated with the control composition according to the Colby method (Colby, 1967) described in Example 5.
The experiment was conducted as described in Example 6, except for the fact that each wounded and inoculated orange was treated with 150 μl of a freshly prepared aqueous antifungal composition comprising either 500 ppm natamycin (DSM Food Specialties, Delft, The Netherlands), 600 ppm ferbam or both. During the 17-day incubation period, the treated oranges were assessed on mould growth according to the method described in Example 6.

Penicillium italicum [2] = experiment: Treatment of oranges inoculated with Penicillium italicum, natamycin/propineb (Example 6); settings: 20° C., 500 ppm propineb
Protocol: as §1, §2

Botrytis cinerea [3] = experiment: Treatment of strawberries inoculated with Botrytis cinerea (Example 5); settings: 500 ppm natamycin, 600 ppm propineb; for Number of moulded strawberries/total number of 12 strawberries / Observed antifungal activity O: 20° C., strawberries
Protocol: Twelve fresh, organic strawberries were used per treatment. Each strawberry was wounded with a 0.5 mm long cut and each wound was inoculated with 10 μl of a Botrytis cinerea suspension containing 1×10^5 of spores/ml. After a 3-hour incubation period at 20° C., each strawberry was dipped individually for 1 minute in a freshly prepared aqueous antifungal composition comprising either 500 ppm natamycin (DSM Food Specialties, Delft, The Netherlands), 600 ppm propineb or both. Each antifungal composition also comprised 3.2% (w/w) beeswax, 0.8% (w/w) glycerol, 0.7% (w/w) polyoxyethylene sorbitan monostearate (Tween 60), 0.1% (w/w) polyoxyethylene sorbitan monooleate (Tween 80), 0.05% (w/w) methylhydroxyethyl-cellulose (MH EC), 0.03% (w/w) anti-foaming agent, 0.02% (w/w) xanthan gum, 0.02% (w/w) citric acid, 0.01% (w/w) lactic acid and 0.01% potassium sorbate. A composition without natamycin or propineb was used as control. […] The treated strawberries were incubated in a closed box in the dark at 20° C. for 9 days.
During incubation, mould growth on the strawberries was assessed in a twofold manner: (i) the number of moulded strawberries per total of 12 strawberries was counted; and (ii) the antifungal activity (in %) of the individual and combined active ingredients was determined by calculating the reduction in mould growth observed on the strawberries treated with the antifungal composition in comparison to the mould growth on the strawberries treated with the control composition. The expected antifungal activity (E in %) of the combined antifungal composition comprising both active ingredients was calculated according to the Colby equation (Colby, 1967): […]
wherein X and Y are the observed antifungal activities (in %) of the individual active ingredients X and Y, respectively.

Botrytis cinerea [4] = experiment: Treatment of sweet peppers inoculated with Botrytis cinerea (Example 8); settings: 20° C., 200 ppm propineb
Protocol: Ten fresh, organic sweet peppers were used per treatment. Each sweet pepper was soaked in a 180 ppm hypochlorite solution for 10 minutes, then rinsed thoroughly with fresh tap water and dried. The peel of each disinfected sweet pepper was wounded once using a cork borer according to the method described by de Lapeyre de Bellaire and Dubois (1987). Subsequently, each wound was inoculated with 10 μl of a Botrytis cinerea suspension containing 1×10^5 of spores/ml. After incubation for 3 hours at 20° C., each wound and the skin area of 0.5 cm around the wound was treated with in total 75 μl of a freshly prepared aqueous antifungal composition comprising either 200 ppm natamycin (DSM Food Specialties, Delft, The Netherlands), 200 ppm propineb or both. Each antifungal composition also comprised 3.2% (w/w) beeswax, 0.8% (w/w) glycerol, 0.7% (w/w) polyoxyethylene sorbitan monostearate (Tween 60), 0.2% (w/w) polyoxyethylene sorbitan monooleate (Tween 80), 0.05% (w/w) methylhydroxyethyl-cellulose (MHEC), 0.03% (w/w) anti-foaming agent, 0.02% (w/w) xanthan gum, 0.02% (w/w) citric acid, 0.01% (w/w) lactic acid and 0.01% potassium sorbate. A composition without natamycin or propineb was used as control.
as §2, with “sweet peppers” for “oranges”, “27-day” for “17-day”

[5] = incubation day 7, 500 ppm natamycin
[6] = incubation day 8, 500 ppm natamycin
[7] = incubation day 9, 500 ppm natamycin
[8] = incubation day 10, 500 ppm natamycin
[9] = incubation day 11, 500 ppm natamycin
[10] = incubation day 12, 500 ppm natamycin
[11] = incubation day 13, 500 ppm natamycin
[12] = incubation day 14, 500 ppm natamycin
[13] = incubation day 15, 500 ppm natamycin
[14] = incubation day 17, 500 ppm natamycin
[15] = incubation day 11, 200 ppm natamycin
[16] = incubation day 12, 200 ppm natamycin
[17] = incubation day 13, 200 ppm natamycin
[18] = incubation day 15, 200 ppm natamycin
[19] = incubation day 18, 200 ppm natamycin
[20] = incubation day 24, 200 ppm natamycin
[21] = incubation days 20-22, 200 ppm natamycin
[22] = incubation days 25-27, 200 ppm natamycin

Row | Molecule | Observed antifungal activity O (Penicillium italicum [1]; [5]) | Observed antifungal activity O (Penicillium italicum [1]; [6]) | Observed antifungal activity O (Penicillium italicum [1]; [7]) | Observed antifungal activity O (Penicillium italicum [1]; [8]) | Observed antifungal activity O (Penicillium italicum [1]; [9]) | Observed antifungal activity O (Penicillium italicum [1]; [10]) | Observed antifungal activity O (Penicillium italicum [1]; [11]) | Observed antifungal activity O (Penicillium italicum [1]; [12]) | Observed antifungal activity O (Penicillium italicum [1]; [13]) | Observed antifungal activity O (Penicillium italicum [1]; [14]) | Observed antifungal activity O (Penicillium italicum [2]; [8]) | Observed antifungal activity O (Penicillium italicum [2]; [9]) | Observed antifungal activity O (Penicillium italicum [2]; [10]) | Observed antifungal activity O (Penicillium italicum [2]; [11]) | Observed antifungal activity O (Penicillium italicum [2]; [12]) | Observed antifungal activity O (Penicillium italicum [2]; [13]) | Observed antifungal activity O (Penicillium italicum [2]; [14]) | Number of moulded strawberries/total number of 12 strawberries (Botrytis cinerea [3]; Day 5) | Number of moulded strawberries/total number of 12 strawberries (Botrytis cinerea [3]; Day 6-9) | Observed antifungal activity O (Botrytis cinerea [3]; incubation day 4) | also measured
1 | CN(C)C(=S)[S-].CN(C)C(=S)[S-].CN(C)C(=S)[S-].[Fe+3] [Ferbam, ferbam] | 20% | 24% | 20% | 7% | 13% | 6% | 6% | 6% | 6% | 5% |  |  |  |  |  |  |  |  |  |  | 
2 | C[C@@H]1C/C=C/C=C/C=C/C=C/[C@H](O[C@@H]2O[C@H](C)[C@@H](O)[C@H](N)[C@@H]2O)C[C@@H]2O[C@](O)(C[C@@H](O)C[C@H]3O[C@@H]3/C=C/C(=O)O1)C[C@H](O)[C@H]2C(=O)O [Natamycin, natamycin] | 89% | 86% | 64% | 54% | 41% | 36% | 38% | 32% | 24% | 21% | 54% | 41% | 36% | 38% | 32% | 24% | 21% | 11/12 | 12/12 | 33% | Observed antifungal activity O (Botrytis cinerea [3]; incubation day 5): 16%; Observed antifungal activity O (Botrytis cinerea [3]; incubation day 6): 5.3%; Observed antifungal activity O (Botrytis cinerea [3]; incubation day 7): 11%; Observed antifungal activity O (Botrytis cinerea [3]; incubation day 8): 14%; Observed antifungal activity O (Botrytis cinerea [3]; incubation day 9): 4.8%; Observed antifungal activity O (Botrytis cinerea [4]; [15]): 84%; Observed antifungal activity O (Botrytis cinerea [4]; [16]): 80%; Observed antifungal activity O (Botrytis cinerea [4]; [17]): 79%; Observed antifungal activity O (Botrytis cinerea [4]; [18]): 78%; Observed antifungal activity O (Botrytis cinerea [4]; [19]): 75%; Observed antifungal activity O (Botrytis cinerea [4]; [20]): 59%; Observed antifungal activity O (Botrytis cinerea [4]; [21]): 71%; Observed antifungal activity O (Botrytis cinerea [4]; [22]): 57%
3 | propineb |  |  |  |  |  |  |  |  |  |  | 0% | 0% | 0% | 0% | 0% | 0% | 0% | 12/12 | 12/12 | 0% | Number of the 12 strawberries that showed mould growth (Botrytis cinerea [3]; after 5 through 9 days of incubation): 12; Observed antifungal activity O (Botrytis cinerea [3]; incubation day 5): 0%; Observed antifungal activity O (Botrytis cinerea [3]; incubation day 6): 0%; Observed antifungal activity O (Botrytis cinerea [3]; incubation day 7): 0%; Observed antifungal activity O (Botrytis cinerea [3]; incubation day 8): 0%; Observed antifungal activity O (Botrytis cinerea [3]; incubation day 9): 0%; Observed antifungal activity O (Botrytis cinerea [4]; [15]): 0%; Observed antifungal activity O (Botrytis cinerea [4]; [16]): 0%; Observed antifungal activity O (Botrytis cinerea [4]; [17]): 0%; Observed antifungal activity O (Botrytis cinerea [4]; [18]): 0%; Observed antifungal activity O (Botrytis cinerea [4]; [19]): 0%; Observed antifungal activity O (Botrytis cinerea [4]; [20]): 0%; Observed antifungal activity O (Botrytis cinerea [4]; [21]): 0%; Observed antifungal activity O (Botrytis cinerea [4]; [22]): 0%
